# Measured values taken from ChEMBL document CHEMBL1201862, “PubChem BioAssay data set” (2004).
# Where “and” joins values, the source holds several entries; their conditions need not be identical. Identical values can stand only once.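 Assay format: 96-well plates, 48-hour exposure. GI50 marks 50% less growth.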 Calls of active or inactive are those of the source. No stated cut-off is given here; in the data, active = GI50 up to about 1.1 µM and inactive = higher.
# Experiments:
# Experiment in all cases: DTP human tumour cell line panel, 48 h
# OVCAR-3 = system: OVCAR-3
# SF-539 = system: SF-539
# NCI-H522 = system: NCI-H522
# NCI/ADR-RES = system: NCI/ADR-RES
# BT-549 = system: BT-549
# OVCAR-8 = system: OVCAR-8
# MDA-MB-435 = system: MDA-MB-435
# SF-295 = system: SF-295
# UACC-62 = system: UACC-62
# DU-145 = system: DU-145
# MCF7 = system: MCF7
# SK-OV-3 = system: SK-OV-3
# T47D = system: T47D
# LOX IMVI = system: LOX IMVI
# RXF 631 = system: RXF 631
# HOP-18 = system: HOP-18
# OVCAR-4 = system: OVCAR-4
# NCI-H23 = system: NCI-H23
# PC-3 = system: PC-3
# HOP-62 = system: HOP-62
# SN12C = system: SN12C
# U-251 = system: U-251
# Malme-3M = system: Malme-3M
# SNB-19 = system: SNB-19
# MOLT-4 = system: MOLT-4
# 786-0 = system: 786-0
# HCT-15 = system: HCT-15
# HT-29 = system: HT-29
# HOP-92 = system: HOP-92
# KM-20L2 = system: KM-20L2
# MDA-N = system: MDA-N
# A498 = system: A498
# COLO 205 = system: COLO 205
# Hs-578T = system: Hs-578T
# DMS-273 = system: DMS-273
# NCI-H460 = system: NCI-H460
# SF-268 = system: SF-268
# LXFL 529 = system: LXFL 529
# NCI-H226 = system: NCI-H226
# XF498 = system: XF498
# EKVX = system: EKVX
# DLD-1 = system: DLD-1
# SNB-78 = system: SNB-78
# K562 = system: K562
# SNB-75 = system: SNB-75
# MDA-MB-231 = system: MDA-MB-231
# A549 = system: A549
Compound,GI50 (BT-549),GI50 (OVCAR-8),GI50 (MDA-MB-435),GI50 (UACC-62),GI50 (DU-145),GI50 (MCF7),GI50 (SK-OV-3),GI50 (T47D),GI50 (LOX IMVI),GI50 (RXF 631),GI50 (HOP-18),GI50 (OVCAR-4),GI50 (PC-3),GI50 (HOP-62),GI50 (SN12C),GI50 (Malme-3M),GI50 (MOLT-4),GI50 (HCT-15),GI50 (MDA-N),GI50 (A498),also measured
CC(=O)OCC1OC(n2c(=S)n(-c3ccc([N+](=O)[O-])cc3)c(=O)c3ccccc32)C(OC(C)=O)C(OC(C)=O)C1OC(C)=O (stereo not given),2.69 µM (inactive),20.1 µM (inactive),27 µM (inactive),15.7 µM (inactive),24.9 µM (inactive),16.7 µM (inactive),23.3 µM (inactive),17.3 µM (inactive),13.2 µM (inactive),19.2 µM (inactive),13.4 µM (inactive),20.8 µM (inactive),15.8 µM (inactive),21.6 µM (inactive),19.1 µM (inactive),15.2 µM (inactive),8.22 µM (inactive),29.3 µM,27.7 µM (inactive),25.5 µM (inactive),GI50 (OVCAR-3): 17.1 µM (inactive); GI50 (SF-539): 14.3 µM (inactive); GI50 (NCI-H522): 15.4 µM (inactive); GI50 (NCI/ADR-RES): 30.7 µM (inactive); GI50 (SF-295): 23.3 µM (inactive); GI50 (NCI-H23): 21.3 µM (inactive); GI50 (U-251): 18.4 µM (inactive); GI50 (SNB-19): 19.9 µM (inactive); GI50 (786-0): 15.3 µM (inactive); GI50 (HT-29): 21 µM (inactive); GI50 (HOP-92): 25.5 µM (inactive); GI50 (KM-20L2): 28.3 µM (inactive); GI50 (COLO 205): 27.5 µM (inactive); GI50 (Hs-578T): 4.46 µM (inactive); GI50 (DMS-273): 21.9 µM (inactive); GI50 (NCI-H460): 21.7 µM (inactive); GI50 (SF-268): 18.5 µM (inactive)
C/C=C(\CCC1NCCc2c1[nH]c1ccccc21)[Si](C)(C)C (stereo not given),10.8 µM (inactive),4.16 µM (inactive) and 7.82 µM (inactive),3.37 µM (inactive),5.86 µM (inactive) and 5.27 µM (inactive),12.6 µM (inactive),2.02 µM (inactive),13.4 µM (inactive) and 10.1 µM (inactive),2.22 µM (inactive),2.28 µM (inactive) and 20.3 µM (inactive),5.05 µM (inactive) and 7.28 µM (inactive),6.79 µM (inactive) and 20.1 µM (inactive),3.03 µM (inactive) and 5.81 µM (inactive),5.01 µM (inactive),11.9 µM (inactive) and 14.5 µM (inactive),5.89 µM (inactive) and 3.32 µM (inactive),1.77 µM (inactive) and 1.21 µM (inactive),2.74 µM (inactive) and 4.35 µM (inactive),18.7 µM and 2.25 µM,2.09 µM (inactive),2.67 µM (inactive) and 6.5 µM (inactive),GI50 (LXFL 529): 1.78 µM (inactive) and 5.01 µM (inactive); GI50 (NCI-H226): 10.9 µM (inactive) and 7.76 µM (inactive); GI50 (XF498): 1.41 µM (inactive) and 1.8 µM (inactive); GI50 (EKVX): 14.7 µM (inactive) and 8.41 µM (inactive); GI50 (DLD-1): 3.49 µM (inactive) and 6.24 µM (inactive); GI50 (SNB-78): 4.9 µM (inactive) and 9.31 µM (inactive); GI50 (K562): 3.57 µM (inactive) and 6.67 µM (inactive); GI50 (COLO 205): 14.3 µM (inactive) and 1.8 µM (inactive); GI50 (SNB-75): 5.97 µM (inactive) and 6.5 µM (inactive); GI50 (Hs-578T): 2.05 µM (inactive); GI50 (MDA-MB-231): 2.14 µM (inactive); GI50 (A549): 10.1 µM (inactive) and 6.59 µM (inactive); GI50 (SF-268): 11.2 µM (inactive) and 5.96 µM (inactive)
